Test results taken from patent publication US20240270759A1, “Preparation of SHP2 phosphatase inhibitors and its applications” (Ya Therapeutics Inc, priority 2021, published 2024).
pIC50: −log10 of the molar value.

Molecular target: T1, SHP2 full-length protein (Homo sapiens, UniProt Q06124)
T1 construct: purchased BPS Bioscience #79330
T1 sequence (Q06124 1-593): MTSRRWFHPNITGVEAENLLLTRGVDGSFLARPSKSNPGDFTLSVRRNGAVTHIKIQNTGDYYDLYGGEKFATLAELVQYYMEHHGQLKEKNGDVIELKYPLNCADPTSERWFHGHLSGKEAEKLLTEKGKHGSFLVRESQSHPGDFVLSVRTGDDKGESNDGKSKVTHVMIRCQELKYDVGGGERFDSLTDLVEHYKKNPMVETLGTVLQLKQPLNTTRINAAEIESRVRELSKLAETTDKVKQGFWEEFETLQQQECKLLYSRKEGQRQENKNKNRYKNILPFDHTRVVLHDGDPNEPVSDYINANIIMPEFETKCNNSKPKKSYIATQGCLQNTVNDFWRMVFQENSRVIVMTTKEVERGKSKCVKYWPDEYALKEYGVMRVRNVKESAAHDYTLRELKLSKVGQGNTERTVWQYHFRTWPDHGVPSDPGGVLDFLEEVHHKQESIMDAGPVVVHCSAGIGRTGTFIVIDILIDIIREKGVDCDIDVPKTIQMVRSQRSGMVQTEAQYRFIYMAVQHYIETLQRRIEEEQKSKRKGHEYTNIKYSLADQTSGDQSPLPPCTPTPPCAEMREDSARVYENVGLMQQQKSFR
Experiment: SHP2 allosteric inhibition experiment (Homogeneous Full Length SHP-2 Assay Kit)
Assay type: biochemical
Conditions: full-length SHP2 0.06 nM with SHP-2 activating peptide; ten-point, 1 μM to 0.05 nM; read-out: IC50 Values of Compounds Inhibiting SHP2

`C[C@@H]1OCC2(CCN(c3nnc(Sc4cccc(-c5cnccn5)c4Cl)nn3)CC2)[C@@H]1N` [Compound 133, (3S,4S)-8-(3-((2-chloro-3-(pyrazine-2-yl)phenyl)mercapto)-tetrazine-6-yl)-3-methyl-2-oxa-8-azaspiro[4.5]decane-4-amine] was tested, and the pIC50 was at least 8.00.

With `C[C@@H]1OCC2(CCN(c3cnc(Sc4cccc(-c5cnccn5)c4Cl)nn3)CC2)[C@@H]1N` [Compound 134, (3S,4S)-8-(3-((2-chloro-3-(pyrazine-2-yl)phenyl)mercapto)-1,2,4-triazine-6-yl)-3-methyl-2-oxa-8-azaspiro[4.5]decane-4-amine] the pIC50 was at least 8.00.

Work on `C[C@@H]1OCC2(CCN(c3ncc(Sc4cccc(-c5cnccn5)c4Cl)nn3)CC2)[C@@H]1N` [Compound 135, (3S,4S)-8-(6-((2-chloro-3-(pyrazine-2-yl)phenyl)mercapto)-1,2,4-triazine-3-yl)-3-methyl-2-oxa-8-azaspiro[4.5]decane-4-amine] yielded a pIC50 of at least 8.00.

`C[C@@H]1OCC2(CCN(c3nnc(Sc4cccc(NC(=O)c5c(O)nc6n(c5=O)CCCC6)c4Cl)nn3)CC2)[C@@H]1N` [Compound 137, N-(3-((5-((3S,4S)-4-amino-3-methyl-2-oxa-8-azaspiro[4.5]decane-8-yl)s-tetrazine-3-yl)mercapto)-2-chlorophenyl)-2-hydroxy-4-oxa-6,7,8,9-tetrahydro-4H-pyridinyl[1,2-a]pyrimidine-3-carboxamide] gave a pIC50 of at least 8.00.

“N-(3-((5-((3S,4S)-4-amino-3-methyl-2-oxa-8-azaspiro[4.5]decane-8-yl)-1,2,4-triazine-3-yl)mercapto)-2-chlorobenzene)-2-hydroxy-4-oxa-6,7,8,9-tetrahydro-4H-pyridinyl[1,2-a]pyrimidine-3-carboxamide [Compound 138]” was tested, and the pIC50 was at least 8.00.

“N-(3-((5-((3S,4S)-4-amino-3-methyl-2-oxa-8-azaspiro[4.5]decane-8-yl)pyridazine-3-yl) mercapto)-2-chlorophenyl)-2-hydroxy-4-oxa-6,7,8,9-tetrahydro-4H-pyridinyl[1,2-a]pyrimidine-3-carboxamide [Compound 136]” gave a pIC50 of at least 8.00.
